Source: PubChem BioAssay (NCI)
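Assay format: 96-well plates, 48-hour exposure. GI50 is the concentration that inhibits growth by half. TGI marks complete inhibition of growth.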

Experiments:
Assay in all cases: DTP human tumour cell line panel, 48 h
786-0 renal = test system: 786-0 renal
A498 renal = test system: A498 renal
A549 NSCLC = test system: A549 NSCLC
ACHN renal = test system: ACHN renal
BT-549 breast = test system: BT-549 breast
CAKI-1 renal = test system: CAKI-1 renal
CCRF-CEM leukemia = test system: CCRF-CEM leukemia
COLO 205 colon = test system: COLO 205 colon
DU-145 prostate = test system: DU-145 prostate
HCC-2998 colon = test system: HCC-2998 colon
HCT-116 colon = test system: HCT-116 colon
HCT-15 colon = test system: HCT-15 colon
HL-60(TB) leukemia = test system: HL-60(TB) leukemia
HOP-62 NSCLC = test system: HOP-62 NSCLC
HOP-92 NSCLC = test system: HOP-92 NSCLC
HS 578T breast = test system: HS 578T breast
HT29 colon = test system: HT29 colon
IGROV1 ovarian = test system: IGROV1 ovarian
K-562 leukemia = test system: K-562 leukemia
KM12 colon = test system: KM12 colon
LOX IMVI melanoma = test system: LOX IMVI melanoma
M14 melanoma = test system: M14 melanoma
MALME-3M melanoma = test system: MALME-3M melanoma
MCF7 breast = test system: MCF7 breast
MDA-MB-231 breast = test system: MDA-MB-231 breast
MDA-MB-435 = test system: MDA-MB-435
MOLT-4 leukemia = test system: MOLT-4 leukemia
NCI-H226 lung = test system: NCI-H226 lung
NCI-H23 lung = test system: NCI-H23 lung
NCI-H460 lung = test system: NCI-H460 lung
NCI-H522 lung = test system: NCI-H522 lung
NCI/ADR-RES ovarian = test system: NCI/ADR-RES ovarian
OVCAR-3 ovarian = test system: OVCAR-3 ovarian
OVCAR-4 ovarian = test system: OVCAR-4 ovarian
OVCAR-5 ovarian = test system: OVCAR-5 ovarian
OVCAR-8 ovarian = test system: OVCAR-8 ovarian
PC-3 prostate = test system: PC-3 prostate
RPMI-8226 leukemia = test system: RPMI-8226 leukemia
RXF 393 renal = test system: RXF 393 renal
SF-268 CNS = test system: SF-268 CNS
SF-539 CNS = test system: SF-539 CNS
SK-MEL-2 melanoma = test system: SK-MEL-2 melanoma
SK-MEL-28 melanoma = test system: SK-MEL-28 melanoma
SK-MEL-5 melanoma = test system: SK-MEL-5 melanoma
SK-OV-3 ovarian = test system: SK-OV-3 ovarian
SN12C renal = test system: SN12C renal
SNB-19 CNS = test system: SNB-19 CNS
SR leukemia = test system: SR leukemia
SW-620 colon = test system: SW-620 colon
T-47D breast = test system: T-47D breast
TK-10 renal = test system: TK-10 renal
U251 CNS = test system: U251 CNS
UACC-257 melanoma = test system: UACC-257 melanoma
UACC-62 melanoma = test system: UACC-62 melanoma
UO-31 renal = test system: UO-31 renal

Q: What does the source list for `COc1cc2ccnc(C=O)c2cc1OC`?
A: GI50 (786-0 renal): 18.3 µM; TGI (786-0 renal): > 100 µM; GI50 (A498 renal): > 100 µM; TGI (A498 renal): > 100 µM; GI50 (A549 NSCLC): > 100 µM; TGI (A549 NSCLC): > 100 µM; GI50 (ACHN renal): 4.71 µM; TGI (ACHN renal): 54.8 µM; GI50 (BT-549 breast): 2.68 µM; TGI (BT-549 breast): 7.14 µM; GI50 (CAKI-1 renal): 23 µM; TGI (CAKI-1 renal): 85.2 µM; GI50 (CCRF-CEM leukemia): 3.08 µM; TGI (CCRF-CEM leukemia): 22.1 µM; GI50 (COLO 205 colon): > 100 µM; TGI (COLO 205 colon): > 100 µM; GI50 (DU-145 prostate): 4.83 µM; TGI (DU-145 prostate): > 100 µM; GI50 (HCC-2998 colon): 23.8 µM; TGI (HCC-2998 colon): > 100 µM; GI50 (HCT-116 colon): 1.92 µM; TGI (HCT-116 colon): 14.8 µM; GI50 (HCT-15 colon): 3.43 µM; TGI (HCT-15 colon): > 100 µM; GI50 (HL-60(TB) leukemia): 2.2 µM; TGI (HL-60(TB) leukemia): 5.89 µM; GI50 (HOP-62 NSCLC): 18.2 µM; TGI (HOP-62 NSCLC): 98.1 µM; GI50 (HOP-92 NSCLC): 1.18 µM; TGI (HOP-92 NSCLC): 5.93 µM; GI50 (HS 578T breast): 23.8 µM; TGI (HS 578T breast): > 100 µM; GI50 (HT29 colon): 3.3 µM; TGI (HT29 colon): > 100 µM; GI50 (IGROV1 ovarian): 22.8 µM; TGI (IGROV1 ovarian): > 100 µM; GI50 (K-562 leukemia): 4.84 µM; TGI (K-562 leukemia): > 100 µM; GI50 (KM12 colon): 31.9 µM; TGI (KM12 colon): > 100 µM; GI50 (LOX IMVI melanoma): 10.1 µM; TGI (LOX IMVI melanoma): > 100 µM; GI50 (M14 melanoma): 4.98 µM; TGI (M14 melanoma): 28.5 µM; GI50 (MALME-3M melanoma): 14.7 µM; TGI (MALME-3M melanoma): > 100 µM; GI50 (MCF7 breast): 3.64 µM; TGI (MCF7 breast): > 100 µM; GI50 (MDA-MB-231 breast): 6.51 µM; TGI (MDA-MB-231 breast): 75.1 µM; GI50 (MDA-MB-435): 2.63 µM; TGI (MDA-MB-435): 24.9 µM; GI50 (MOLT-4 leukemia): 4.52 µM; TGI (MOLT-4 leukemia): 41.4 µM; GI50 (NCI-H226 lung): 29.9 µM; TGI (NCI-H226 lung): > 100 µM; GI50 (NCI-H23 lung): 24.9 µM; TGI (NCI-H23 lung): > 100 µM; GI50 (NCI-H460 lung): > 100 µM; TGI (NCI-H460 lung): > 100 µM; GI50 (NCI-H522 lung): 12.5 µM; TGI (NCI-H522 lung): 31.3 µM; GI50 (NCI/ADR-RES ovarian): 16 µM; TGI (NCI/ADR-RES ovarian): > 100 µM; GI50 (OVCAR-3 ovarian): 6.36 µM; TGI (OVCAR-3 ovarian): 90.6 µM; GI50 (OVCAR-4 ovarian): 5.11 µM; TGI (OVCAR-4 ovarian): 24.2 µM; GI50 (OVCAR-5 ovarian): 17 µM; TGI (OVCAR-5 ovarian): > 100 µM; GI50 (OVCAR-8 ovarian): 5.45 µM; TGI (OVCAR-8 ovarian): 63.4 µM; GI50 (PC-3 prostate): 23.9 µM; TGI (PC-3 prostate): > 100 µM; GI50 (RPMI-8226 leukemia): 3.44 µM; TGI (RPMI-8226 leukemia): 34.8 µM; GI50 (RXF 393 renal): 1.45 µM; TGI (RXF 393 renal): 4.98 µM; GI50 (SF-268 CNS): 23.5 µM; TGI (SF-268 CNS): > 100 µM; GI50 (SF-539 CNS): 5.65 µM; TGI (SF-539 CNS): 29.7 µM; GI50 (SK-MEL-2 melanoma): 37.1 µM; TGI (SK-MEL-2 melanoma): > 100 µM; GI50 (SK-MEL-28 melanoma): 12.4 µM; TGI (SK-MEL-28 melanoma): > 100 µM; GI50 (SK-MEL-5 melanoma): 10.7 µM; TGI (SK-MEL-5 melanoma): 23.6 µM; GI50 (SK-OV-3 ovarian): > 100 µM; TGI (SK-OV-3 ovarian): > 100 µM; GI50 (SN12C renal): 12.1 µM; TGI (SN12C renal): > 100 µM; GI50 (SNB-19 CNS): > 100 µM; TGI (SNB-19 CNS): > 100 µM; GI50 (SR leukemia): 0.696 µM; TGI (SR leukemia): > 100 µM; GI50 (SW-620 colon): 4.15 µM; TGI (SW-620 colon): > 100 µM; GI50 (T-47D breast): 14 µM; TGI (T-47D breast): > 100 µM; GI50 (TK-10 renal): 6.02 µM; TGI (TK-10 renal): 44.1 µM; GI50 (U251 CNS): 28.7 µM; TGI (U251 CNS): > 100 µM; GI50 (UACC-257 melanoma): 18.9 µM; TGI (UACC-257 melanoma): > 100 µM; GI50 (UACC-62 melanoma): 6.87 µM; TGI (UACC-62 melanoma): 38.1 µM; GI50 (UO-31 renal): 3.98 µM; TGI (UO-31 renal): 42.2 µM
